In patent publication EP0271192A2, “Purine histamine H1 antagonists, their preparation and pharmaceutical compositions containing them” (AMERICAN HOME PRODUCTS CORPORATION, priority 1986, dated 1988):

What was measured:
H₁-receptor [1] = target: T1, H₁-receptor (Cavia porcellus, UniProt P31389); experiment: Reduction of histamine-induced contraction of isolated guinea pig ileum; assay type: cell-based, guinea pigs; details: test drug 1 × 10⁻⁷M in the presence of histamine 1 × 10⁻⁶M; guinea pig terminal ileum; quadruplicate sets of tissues; read-out: percent reduction in tissue contraction
T1 construct: Fresh segments of terminal ileum immediately proximal to Peyer's patch, obtained from male Buckshire guinea pigs; from tissue; host or cells: guinea pig terminal ileum segments
Experimental: The compounds of this invention were established to be histamine H₁-antagonists by subjecting them to the following standard test procedures for H₁-blocking activity:
Fresh segments of terminal ileum immediately proximal to Peyer's patch, obtained from male Buckshire guinea pigs, were suspended in 37°C Tyrode's solution in a tissue bath and aerated. The tissue segments were placed under one gram tension and allowed to equilibrate for one hour. Histamine was added to each tissue bath to a final concentration of 1 × 10⁻⁶M. The contraction response after it equilibrated was noted as grams tension. Test drug was added, in the presence of histamine, to each bath to a final concentration of 1 × 10⁻⁷M. The change in grams tension was noted and the percent reduction in grams tension calculated.

H₁-receptor [2] = target: T1, H₁-receptor; experiment: Shift of the histamine dose-response curve in ileum tissue; assay type: cell-based, guinea pigs; details: ileum tissues
[3] = system: histamine-induced death in guinea pigs; experiment: Protection against histamine-induced death after oral pretreatment; assay type: in vivo

T1 sequence (P31389 whole entry): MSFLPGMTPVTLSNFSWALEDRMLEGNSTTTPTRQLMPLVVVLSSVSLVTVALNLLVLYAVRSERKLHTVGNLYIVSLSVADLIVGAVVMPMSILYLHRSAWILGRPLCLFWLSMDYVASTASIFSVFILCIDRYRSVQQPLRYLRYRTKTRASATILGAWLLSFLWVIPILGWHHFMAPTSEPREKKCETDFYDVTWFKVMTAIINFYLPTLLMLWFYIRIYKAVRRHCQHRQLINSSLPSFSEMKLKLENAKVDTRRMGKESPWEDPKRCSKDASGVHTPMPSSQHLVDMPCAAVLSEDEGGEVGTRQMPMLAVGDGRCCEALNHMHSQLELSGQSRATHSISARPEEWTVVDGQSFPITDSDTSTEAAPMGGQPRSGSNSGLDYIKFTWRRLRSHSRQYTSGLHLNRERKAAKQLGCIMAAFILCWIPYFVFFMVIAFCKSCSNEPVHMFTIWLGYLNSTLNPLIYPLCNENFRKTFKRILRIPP

| Structure (SMILES) | inhibition at 0.1 µM (H₁-receptor [1]) [%] | Kb (H₁-receptor [2]; calculated via formula from the dose-response curve shift at 10⁻⁸M compound, read-out: histamine H₁antagonist potency) [nM] | shift of histamine dose-response curve (H₁-receptor [2]; compound at 10⁻⁸M) | Percent Survival ([3]; 0.5 mg/kg p.o., 18 Hours pretreatment, Trial5) [%] | Percent Survival ([3]; 0.5 mg/kg p.o., 18 Hours pretreatment, Trial 6) [%] | Percent Survival ([3]; 1.0 mg/kg p.o., 1 Hour pretreatment, Trial 1) [%] | Percent Survival ([3]; 1.0 mg/kg p.o., 1 Hour pretreatment, Trial 2) [%] | Percent Survival ([3]; 1.0 mg/kg p.o., 1 Hour pretreatment, Trial 3) [%] | Percent Survival ([3]; 1.0 mg/kg p.o., 2 Hours pretreatment, Trial 3) [%] | Percent Survival ([3]; 1.0 mg/kg p.o., 2 Hours pretreatment, Trial 4) [%] | Percent Survival ([3]; 1.0 mg/kg p.o., 18 Hours pretreatment, Trial5) [%] | Percent Survival ([3]; 5.0 mg/kg p.o., 1 Hour pretreatment, Trial 1) [%] | Percent Survival ([3]; 10.0 mg/kg p.o., 2 Hours pretreatment, Trial 4) [%] |
| --- | --- | --- | --- | --- | --- | --- | --- | --- | --- | --- | --- | --- | --- |
| Cn1c(=O)c2c(ncn2CCN2CCC(OC(c3ccc(F)cc3)c3ccc(F)cc3)CC2)n(C)c1=O [Example 4, 7-[2-[4-Bis(4-fluorophenyl)methoxy]-1-piperidinyl]ethyl-3,7-dihydro-1,3-dimethyl-1H-purine-2,6-dione] | 62 |  |  |  |  |  |  |  |  |  |  |  |  |
| Cn1c(=O)c2c(ncn2CCCN2CCC(OC(c3ccccc3)c3ccccc3)CC2)n(C)c1=O [Example 1, 7-[3-(4-Diphenylmethoxy)-1-piperidinyl]propyl-3,7-dihydro-1,3-dimethyl-1H-purine-2,6-dione] | 92 | 0.29 | marked, parallel shift of the curve to the right | 70 | 40 | 40 | 10 | 40 | 70 | 70 | 80 | 80 | 60 |
